Measured values from patent US20240415814A1, “PHARMACEUTICAL COMPOSITION COMPRISING 1-(3-CYANO-1-ISOPROPYL-INDOL-5-YL)PYRAZOLE-4-CARBOXYLIC ACID” (LG CHEM, LTD., priority 2021, published 2024).

Key:
serum uric acid [1] = experiment: Phase 2 clinical trial (NCT03934099): serum uric acid concentration in gout patients; format: in vivo, human; details: for average maximum degree of reduction in serum uric acid: FIG. 3; for patients with serum uric acid concentration <6 mg/dL: gout patients, with colchicine 0.6 mg; for average serum uric acid concentration: within 2 weeks after starting administration
Protocol: A phase 2 clinical trial was conducted to analyze the dosage, TEAEs, and the like when the compound of Formula 1 (1-(3-cyano-1-isopropyl-indol-5-yl)pyrazol-4-carboxylic acid; compound of Example 1) is administered to a gout patient group.
• 1. Written informed consent (signed and dated) provided voluntarily prior to the start of the study. • 2. Male or female aged from 18 to 75 • 3. History or experience of hyperuricemia and gout in accordance with the criteria of the American College of Rheumatology. • 4. Self-reported history of 2 or more gout flare within 12 months prior to screening visit (Visit 1). • 5. Serum uric acid (sUA) levels at Visit 1 of 6.0 mg/dL or more in subjects who were receiving urate lower therapy (ULT) with allopurinol, febuxostat, probenecid, or lesinurad; and sUA levels at Visit 1 of 8.0 mg/dL or more and 12.0 mg/dL or less in subjects who had no history of receiving the ULT or were not receiving the ULT at visit 1. • 6. sUA levels of 8.0 mg/dL or more and 12.0 mg/dL or less at Visit 3. • 7. Body mass index of 42 kg/m^2 or less at screening visit (Visit 1). • 8. Estimated glomerular filtration rate (eGFR) of 60 mL/min/1.73 m^2 or more at screening visit (Visit 1). • 9. Subjects of childbearing potential with a negative pregnancy test result at screening visit (Visit 1). Subjects (female subjects of childbearing potential and male subjects with partners of childbearing potential) consented to use adequate methods of contraception to avoid pregnancy during the study period. • 10. Able to understand the study procedure and relevant risk, and willing to comply with the visit/protocol schedule.
• 1. Presence of secondary hyperuricemia caused by myeloproliferative disorder, organ transplantation, or the like. • 2. Experience of any active acute gout flare within 3 weeks prior to screening visit (Visit 1). • 3. Aspartate aminotransferase or alanine aminotransferase level exceeds 2 times upper limit of normal (ULN) at screening visit (Visit 1). • 4. Creatine kinase level exceeds 2.5 times ULN at screening visit (Visit 1). • 5. Presence of previous hypersensitivity to colchicine. • 6. Patients who have ever prescribed pegloticase within 3 months prior to screening visit (Visit 1). • 7. If a stable dose of drugs (losartan, fibrate, thiazide diuretics, loop diuretics, and acetylsalicylic acid) known to affect sUA levels has not been administered during the past 6 weeks prior to screening visit (Visit 1), acetylsalicylic acid is not allowed to use 325 mg/day or more. • 8. Patients who have ever received systemic corticosteroids for 10 or more consecutive days within 1 month prior to screening visit (Visit 1). • 9. Presence of need or potential availability of systemic immunosuppressive drugs or immunomodulatory therapies (e.g., azathioprine, 6-mercaptopurine, and cyclosporine) • 10. Patients who have received high or moderate doses of cytochrome P450 3A4 inhibitors or P-glycoprotein inhibitors within 14 days prior to screening visit (Visit 1). • 11. History of xanthinuria. • 12. History of rheumatoid arthritis. • 13. Presence of active peptic ulcer disease requiring treatment. • 14. Presence of unstable angina, New York Heart Association class III or IV heart failure, myocardial infarction, stroke, deep vein thrombosis, percutaneous coronary intervention (with or without stent), or coronary artery bypass graft within the past 12 months prior to screening visit (Visit 1); current administration of anticoagulants; or the presence of clinically significant electrocardiogram abnormalities in the investigator's opinion at screening visit (Visit 1). • 15. Presence of uncontrolled hypertension (systolic blood pressure>160 mmHg or diastolic blood pressure>95 mmHg) at screening visit (Visit 1). • 16. History of myositis/myopathy, rhabdomyolysis, Stevens-Johnson syndrome, or toxic epidermal necrolysis. • 17. […]

serum uric acid [2] = experiment: Pharmacodynamics (serum uric acid) according to renal function of patients; format: in vivo, human; details: for AUEC0-24 of serum uric acid (baseline corrected), geometric LS mean / Cmean, 24 of serum uric acid (baseline corrected), geometric LS mean / Emax of serum uric acid (baseline corrected), geometric LS mean: 200 mg once daily, Day 7
Protocol: PK and PD of the compound of Example 1 were assessed under patient groups with various degrees of renal function. […] A total of 37 patients were classified into 4 groups as follows based on renal function according to eGFR which was calculated by MDRD formula: • Normal: eGFR≥90 mL/min/1.73 m^2, n=13 • Mild (mild renal function impairment): eGFR 60-less than 90 mL/min/1.73 m^2, n=8 • Moderate (moderate renal function impairment): eGFR 30-less than 60 mL/min/1.73 m^2, n=8 • Severe (severe renal function impairment): eGFR<30 mL/min/1.73 m^2 and not on hemodialysis, n=8
Blood and urine samples were collected before dosing and up to 24 or 48 hours after the final dosing for PK/PD assessment.
An analysis of variance (ANOVA) model was fitted to the log-transformed baseline corrected PD parameters, with renal function impairment group fitted as a fixed effect. Point estimates and 90% CIs for differences between the least square means on the log scale were exponentiated to express the results as ratios of geometric means and CIs on the original scale.

[3] = 200 mg/day oral, 12 weeks, listed as 1-(3-cyano-1-isopropyl-indol-5-yl)pyrazol-4-carboxylic acid
[4] = mild renal function impairment (eGFR 60-<90), 50 mg, 12 weeks
[5] = mild renal function impairment (eGFR 60-<90), 100 mg, 12 weeks
[6] = mild renal function impairment (eGFR 60-<90), 200 mg, 12 weeks
[7] = moderate renal function impairment (eGFR 30-<60), at each dose (50, 100, 200 mg), 12 weeks
[8] = normal renal function (eGFR>=90), 50 mg, 12 weeks
[9] = normal renal function (eGFR>=90), 100 mg, 12 weeks
[10] = normal renal function (eGFR>=90), 200 mg, 12 weeks
[11] = normal renal function (control)

Compound: CC(C)n1cc(C#N)c2cc(-n3cc(C(=O)O)cn3)ccc21 [Example 1, 1-(3-cyano-1-isopropyl-indol-5-yl)pyrazol-4-carboxylic acid]
- average maximum degree of reduction in serum uric acid (serum uric acid [1]; 50 mg): 46.7%
- patients with serum uric acid concentration <4 mg/dL (serum uric acid [1]; 50 mg/day oral, 12 weeks): 18% (6/34 people)
- patients with serum uric acid concentration <6 mg/dL (serum uric acid [1]; 50 mg/day oral, 12 weeks): 59%
- average serum uric acid concentration (serum uric acid [1]; 50 mg/day): 5.5 mg/dL
- average maximum degree of reduction in serum uric acid (serum uric acid [1]; 100 mg): 50.6%
- patients with serum uric acid concentration <4 mg/dL (serum uric acid [1]; 100 mg/day oral, 12 weeks): 29% (11/38 people)
- patients with serum uric acid concentration <6 mg/dL (serum uric acid [1]; 100 mg/day oral, 12 weeks): 63%
- average serum uric acid concentration (serum uric acid [1]; 100 mg/day): 4.9 mg/dL
- average maximum degree of reduction in serum uric acid (serum uric acid [1]; 200 mg): 66.8%
- patients with serum uric acid concentration <4 mg/dL (serum uric acid [1]; 200 mg/day oral, 12 weeks): 54% (20/37 people)
- patients with serum uric acid concentration <6 mg/dL (serum uric acid [1]; 200 mg/day oral, 12 weeks): 78%
- patients with serum uric acid concentration <4 mg/dL (serum uric acid [1]; [3]): 54%
- patients with serum uric acid concentration <5 mg/dL (serum uric acid [1]; [3]): 62%
- average serum uric acid concentration (serum uric acid [1]; 200 mg/day): 3.8 mg/dL
- serum uric acid concentration kept within the normal range during the dosing period (serum uric acid [1]; doses of 50 mg, 100 mg and 200 mg, from week 2, FIG. 2): < 6.0 mg/dL
- patients adjusted to serum uric acid <5.0 mg/dL (serum uric acid [1]; [4]): 33%
- patients adjusted to serum uric acid <6.0 mg/dL (serum uric acid [1]; [4]): 53%
- patients adjusted to serum uric acid <5.0 mg/dL (serum uric acid [1]; [5]): 44%
- patients adjusted to serum uric acid <6.0 mg/dL (serum uric acid [1]; [5]): 67%
- patients adjusted to serum uric acid <5.0 mg/dL (serum uric acid [1]; [6]): 55%
- patients adjusted to serum uric acid <6.0 mg/dL (serum uric acid [1]; [6]): 77%
- patients adjusted to serum uric acid <5.0 mg/dL (serum uric acid [1]; [7]): ≥ 50%
- patients adjusted to serum uric acid <6.0 mg/dL (serum uric acid [1]; [7]): ≥ 50%
- patients adjusted to serum uric acid <5.0 mg/dL (serum uric acid [1]; [8]): 53%
- patients adjusted to serum uric acid <6.0 mg/dL (serum uric acid [1]; [8]): 59%
- patients adjusted to serum uric acid <5.0 mg/dL (serum uric acid [1]; [9]): 43%
- patients adjusted to serum uric acid <6.0 mg/dL (serum uric acid [1]; [9]): 57%
- patients adjusted to serum uric acid <5.0 mg/dL (serum uric acid [1]; [10]): 71%
- patients adjusted to serum uric acid <6.0 mg/dL (serum uric acid [1]; [10]): 79%
- AUEC0-24, ratio of geometric LS means (serum uric acid [2]; Mild/Normal): 0.980
- Cmean, 24, ratio of geometric LS means (serum uric acid [2]; Mild/Normal): 0.988
- Emax, ratio of geometric LS means (serum uric acid [2]; Mild/Normal): 0.979
- AUEC0-24, ratio of geometric LS means (serum uric acid [2]; Moderate/Normal): 1.02
- Cmean, 24, ratio of geometric LS means (serum uric acid [2]; Moderate/Normal): 1.03
- Emax, ratio of geometric LS means (serum uric acid [2]; Moderate/Normal): 1.02
- AUEC0-24, ratio of geometric LS means (serum uric acid [2]; Severe/Normal): 1.05
- Cmean, 24, ratio of geometric LS means (serum uric acid [2]; Severe/Normal): 1.03
- Emax, ratio of geometric LS means (serum uric acid [2]; Severe/Normal): 0.911
- GLSMRs for Cmean,24, Emax and AUEC0-24 of sUA (serum uric acid [2]; across all renal function impairment groups versus normal): approximately 1
- AUEC0-24 of serum uric acid (baseline corrected), geometric LS mean (serum uric acid [2]; mild impairment): 111 mg·h/dL
- Cmean, 24 of serum uric acid (baseline corrected), geometric LS mean (serum uric acid [2]; mild impairment): 4.53 mg/dL
- Emax of serum uric acid (baseline corrected), geometric LS mean (serum uric acid [2]; mild impairment): 4.43 mg/dL
- AUEC0-24 of serum uric acid (baseline corrected), geometric LS mean (serum uric acid [2]; moderate impairment): 115 mg·h/dL
- Cmean, 24 of serum uric acid (baseline corrected), geometric LS mean (serum uric acid [2]; moderate impairment): 4.74 mg/dL
- Emax of serum uric acid (baseline corrected), geometric LS mean (serum uric acid [2]; moderate impairment): 4.63 mg/dL
- AUEC0-24 of serum uric acid (baseline corrected), geometric LS mean (serum uric acid [2]; [11]): 113 mg·h/dL
- Cmean, 24 of serum uric acid (baseline corrected), geometric LS mean (serum uric acid [2]; [11]): 4.59 mg/dL
- Emax of serum uric acid (baseline corrected), geometric LS mean (serum uric acid [2]; [11]): 4.52 mg/dL
- AUEC0-24 of serum uric acid (baseline corrected), geometric LS mean (serum uric acid [2]; severe impairment): 119 mg·h/dL
- Cmean, 24 of serum uric acid (baseline corrected), geometric LS mean (serum uric acid [2]; severe impairment): 4.72 mg/dL
- Emax of serum uric acid (baseline corrected), geometric LS mean (serum uric acid [2]; severe impairment): 4.12 mg/dL
